We go through 1 sequence from paper PMC7324617, “Selection and identification of a novel bone-targeting peptide for biomedical imaging of bone” (Scientific Reports, 2020).

A short description of data set [1]: Blood analysis for in vivo clearance. Set-up: species or system mice. Particulars: blood samples 10 μL at 1, 3, 6 and 12 h after intravenous injection of Cy5.5-HA pep3; fluorescence (IVIS). The text has this: We used X-ray function of in vivo imaging machine, IVIS Lumina XRMS and performed X-ray imaging of the mice with Cy5.5-HA pep3. With x-ray images, we could observe the high fluorescence intensity at spine (Figure S5a). In additions, we compared its biodistribution in vivo to our Cy5.5-HA pep3 and E7 positive peptide after intravenous injection. […] In addition, we performed blood analysis to determine clearance of our peptide in vivo (Figure S6).
All animal studies were approved by the Institutional Review Board of the Catholic University of Korea (approval No. CUMC-2019-0003-01). BALB/c nude mice (4 weeks old, OrientBio, Seongnam city, Korea) and wild type C3H/HeN mice were used for in vivo imaging. Cy5.5-scramble peptide or Cy5.5-HAp peptide (5 mg/kg of peptide in 100 µL physiological saline, n = 3) were administered to the mice by a tail vein injection. […] All images were analyzed with Living Image 4.5 software (PerkinElmer Inc., Massachusetts, USA). […] The fluorescence intensity of […] in samples was measured by IVIS Lumina XRMS.
Figure S6. […] (a) Time-dependent fluorescence images of blood sample obtained from mice tail at 1, 2, 3, 6 and 12h after intravenous injection of Cy5.5-HA pep3. (b) Average fluorescence intensity graph of the blood samples in (a).

The subject of another data set is Saos-2 cells. Description: Cytotoxicity assay (WST-1) in Saos-2 cells. The format is cell-based. Particulars: 1 nM to 100 μM, 24 h, 48 h and 72 h, WST-1, triplicates. Here is the method:
The biocompatibility of HA-pep3 is important for assessing the feasibility of its in vivo application. Therefore, we performed HA-pep3 cytotoxicity assessment in osteoblastic Saos-2 osteogenic cells for 24 h, 48 h and 72 h (Fig. 6a and Figure S3). The cell viability was measured using various concentrations of HA-pep3 ranging from 1 nM to 100 μM. […] Next, we analyzed HA-pep3 in vivo application feasibility. We used Cy5.5 dye with near-infrared wavelength for in vivo imaging, to minimize tissue adsorption. After Cy5.5 dye labeling, scrambled peptide and HA-pep3 were injected into the tail vein of nude mice. […] The fluorescence intensity in bone was about 3.32 folds higher for Cy5.5-HA-pep3 than for a scrambled sequence (Fig. 6d).
Saos-2 osteosarcoma osteogenic primary cell line was purchased from the Korean cell line bank. Cells were cultured in […] medium with L-glutamine (300 mg/L), 25 mM HEPES, and 25 mM NaHCO3 supplemented with 10% heat-inactivated fetal bovine serum (FBS), 100 U/mL penicillin, and 100 μg/mL streptomycin. The cell lines were cultured at 37 °C and up to 5% CO2 in humidified atmosphere. All reagents and cell culture media were purchased from the WELGENE Company, South Korea. HA-pep3 cytotoxicity was examined using WST-1 assay. […] Finally, the absorbance was measured at 450 nm using a microplate spectrophotometer (Tecan Infinite 200). […]

Entries after “also recorded” stand apart in the source; their conditions may differ. Where no end group is shown, it is not given here.

As to KNFQSRSH [HA-pep3], in data set [1], the clearance from blood result is “disappeared in blood after 12 h”. Also, the “cytotoxicity (cell viability)” value with Saos-2 cells is reported as “no cytotoxicity; also recorded: did not show any cytotoxicity up to 100 μM”.
